The values that follow are results of earlier work, collected in patent US9206425B2, “Methods for treating Niemann-Pick type C disease” (Trustees of Dartmouth College, priority 2011, dated 2015).

The term pIC50 denotes the negative decadic logarithm of the IC50, by convention in mol/L.

The target of series [1] is T1, hACAT-2 (Homo sapiens, UniProt O75908).
T1 sequence (O75908 1-522): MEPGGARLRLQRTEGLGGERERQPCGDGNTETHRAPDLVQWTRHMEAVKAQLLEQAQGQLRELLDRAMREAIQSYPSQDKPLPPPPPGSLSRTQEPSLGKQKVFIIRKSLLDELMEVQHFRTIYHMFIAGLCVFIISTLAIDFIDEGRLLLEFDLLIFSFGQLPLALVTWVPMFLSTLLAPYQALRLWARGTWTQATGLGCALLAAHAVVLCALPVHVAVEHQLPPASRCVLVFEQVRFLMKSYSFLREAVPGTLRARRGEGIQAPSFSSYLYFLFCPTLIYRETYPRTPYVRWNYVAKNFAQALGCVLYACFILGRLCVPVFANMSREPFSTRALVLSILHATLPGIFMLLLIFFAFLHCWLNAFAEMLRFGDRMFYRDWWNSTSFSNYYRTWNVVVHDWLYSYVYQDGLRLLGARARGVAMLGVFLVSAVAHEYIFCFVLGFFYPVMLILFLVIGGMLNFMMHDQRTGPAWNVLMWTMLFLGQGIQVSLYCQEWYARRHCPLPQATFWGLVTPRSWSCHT

Series [2] has as its target T2, ACAT1 (Homo sapiens, UniProt P35610).
T2 sequence (P35610 1-550): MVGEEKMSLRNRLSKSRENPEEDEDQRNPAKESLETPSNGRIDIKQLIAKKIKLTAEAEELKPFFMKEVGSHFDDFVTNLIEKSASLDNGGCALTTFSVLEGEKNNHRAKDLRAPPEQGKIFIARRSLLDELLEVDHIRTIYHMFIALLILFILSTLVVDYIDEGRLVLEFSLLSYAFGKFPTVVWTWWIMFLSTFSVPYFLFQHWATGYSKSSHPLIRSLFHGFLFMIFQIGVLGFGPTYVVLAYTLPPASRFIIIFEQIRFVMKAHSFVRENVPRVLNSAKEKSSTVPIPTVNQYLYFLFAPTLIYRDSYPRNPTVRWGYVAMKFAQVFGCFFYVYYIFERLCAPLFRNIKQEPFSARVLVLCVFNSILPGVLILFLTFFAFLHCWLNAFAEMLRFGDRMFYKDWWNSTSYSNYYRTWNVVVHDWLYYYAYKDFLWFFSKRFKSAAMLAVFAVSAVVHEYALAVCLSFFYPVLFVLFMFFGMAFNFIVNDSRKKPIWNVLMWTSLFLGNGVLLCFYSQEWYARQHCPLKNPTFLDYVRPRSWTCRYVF
The note with it: Cho et al. 2003.

Series [3] addresses T2, ACAT1. The note with it: Lee et al. 2004.
The test system of series [4] is NPC mice and NPC cats.
Series [5] relates to NPC1^−/− mice.
In series [6] the test system is coronary atherosclerosis / familial hypercholesterolemia.
The test system of series [7] is human macrophages. Particulars: in vitro.
The test system of series [8] is mouse model for Alzheimer disease.
Series [9] concerns ACAT1 and ACAT2. The note with it: Kitayama et al. 2006.
Series [10] has as its system NPC disease. The note with it: humans, two-year study.
[11] abbreviates: mouse model for Alzheimer disease.
Where [12] appears, read: continuous administration starting at PND 7.

pIC50: −log10 of the molar value. Read-outs that look alike come from different tables or passages of the source.

`COc1ccc([C@@H](O)[C@@H](C)Oc2ccc([C@H]3O[C@H](c4ccc(O[C@H](C)[C@H](O)c5ccc6c(c5)OCO6)c(OC)c4)[C@H](C)[C@H]3C)cc2OC)cc1OC` [manassantin B]: the “inhibition of hACAT-2” value in [1] (at 1 mM) is 32%.
With `CCOC(=O)OC(=O)OCC` [diethyl pyrocarbonate], the “greater activity on ACAT1 compared to ACAT-2” value in series [2] is listed as 4 fold.
For the compound `CSc1cc(C)nc(SC)c1NC(=O)CN1CCN(CCSc2nc3ccccc3[nH]2)CC1` [K-604], under “laboratory animals”, the safety in vivo result is “safe for use in vivo”.
Regarding saucerneol B, the negative logarithm of the IC50 (pIC50) in series [1] (Lee et al. 2004) is 3.91; in series [3], 4.37.
With `CC(O)COC[C@H]1O[C@@H]2O[C@H]3[C@H](O)[C@@H](O)[C@@H](O[C@H]4[C@H](O)[C@@H](O)[C@@H](O[C@H]5[C@H](O)[C@@H](O)[C@@H](O[C@H]6[C@H](O)[C@@H](O)[C@@H](O[C@H]7[C@H](O)[C@@H](O)[C@@H](O[C@H]8[C@H](O)[C@@H](O)[C@@H](O[C@H]1[C@H](O)[C@H]2O)O[C@@H]8COCC(C)O)O[C@@H]7COCC(C)O)O[C@@H]6COCC(C)O)O[C@@H]5COCC(C)O)O[C@@H]4COCC(C)O)O[C@@H]3COCC(C)O` (stereo partly drawn) [HPCD, hydroxypropyl beta-cyclodextrin], the “crossing the blood brain barrier” value in [4] (mouse, in vivo) is given as “difficulty in crossing the blood brain barrier”. The “macrophage activation in the lungs” value in series [4] (treated NPC mice and NPC cats) is given as “increases in macrophage activation”. Also, the prolonged lifespan in [5] (single injection at PND 7) is reported as 27%. Further, in series [5] (weekly treatment), the cholesterol accumulation entry was “normalize cholesterol accumulation” and the survival result is recorded as “prolong survival”.
With `CC(C)c1cc(C(C)C)c(CC(=O)NS(=O)(=O)Oc2c(C(C)C)cccc2C(C)C)c(C(C)C)c1` [Avasimibe], the “progression of coronary atherosclerosis” value in series [6] (humans, in combination with a statin drug) is “failed to demonstrate efficacy”. Also, for the setting “administered to rats, dogs, and humans”, the safety entry was “safe”. For the same compound, in [7], the “foam cell formation in macrophages” value is on record as “reduces foam cell formation”. Further, in series [8] (14.4 mg/kg/day), the “activity in mouse model for Alzheimer's disease” value is listed as “beneficial activity”. In addition, in series [8] (setting [11]), the amyloid plaque load entry is given as “significant decreases” and the cognitive deficits result was “reduction in cognitive deficits”.
Regarding `CCCCCCCCN1CCc2c(C)c(CC(=O)O)c(C)c(NC(=O)C(C)(C)C)c21` [Pactimibe], in series [6] (patients with familial hypercholesterolemia), the “efficacy as supplement to statin treatment” value is “lacked efficacy”. The “potency on ACAT1 versus ACAT2” value in series [9] is reported as “approximately equal potency”.
For `CCCCN1C[C@H](O)[C@@H](O)[C@H](O)[C@H]1CO` [Miglustat], the “patients with stabilized NPC disease progression” value in [10] is on record as 80 % of patients. Further, in series [5] (setting [12]), the clinical onset entry is “significantly delayed” and the prolonged lifespan is reported as 49%.
